# From ChEMBL document CHEMBL3507680, “University of Dundee, Gates Library screen for HepG2 cell viability”
# Test: Human HepG2 cell viability assay in 384 well format
# Assay type: toxicity, cell-based
# Set-up: dose 125 nL, time 70.5 hour; concentration not given beside the values
# Conditions: HepG2 cells, read-out: Inhibition
row,Structure (SMILES),cytotoxicity at 70.5 h
1,Cc1noc([C@]23COC[C@H]2CN(S(C)(=O)=O)C3)n1,-1.56%
2,CCn1cc(CN2CCC(CNC(C)=O)CC2)cc1C#N,0.676%
3,CC1CCN(CC(=O)N(Cc2ccccc2)Cc2nccs2)C1=O (configuration not stated),-11.6%
4,COCCOCCCC(=O)N1CCC(Cc2ccccc2OC)CC1,-10.9%
5,COc1cccc(S(=O)(=O)CCN2CCN(CCO)CC2)c1,-2.82%
6,O=C(C1CCOCC1)N1CCC(OCc2cccnc2)CC1,-12%
7,COCCN1C(=O)CO[C@H]2CN(S(=O)(=O)c3ccccc3)C[C@H]21,-12.7%
8,C[C@]1(O)CN(CCO)CC[C@@H]1Oc1cccc(F)c1,-2.99%
9,Cc1cnc(N2CCc3c(CN(C)Cc4ccco4)cncc3C2)nc1,-5.82%
10,c1cnc(N2CCOCC3(CCCN(Cc4cc[nH]n4)C3)C2)nc1 (configuration not stated),-3%
11,COCCOc1ccc(NC(=O)C2CC(=O)N(C3CC3)C2)cn1 (configuration not stated),-4.78%
12,CCS(=O)(=O)N1CCC2(CC1)CC[C@@]1(C(=O)N(C)C)CN(C)C[C@@H]21,-15.2%
13,Cc1noc(C)c1CN1CC[C@@H]2O[C@@H](COCC3CC3)CC[C@@H]21,-4.44%
14,OCC1CCCN1c1cc(NCc2cccc3cccnc23)ncn1 (configuration not stated),3.27%
15,CN(C(=O)C1(C#N)CCCCC1)c1nccs1,-0.486%
16,N#Cc1ccc(CN2CCC(CCc3ccc(O)cc3)CC2)cc1,11%
17,Cc1ccc(C(=O)N2C[C@@H]3OCCN(CC4CCCC4)[C@@H]3C2)cn1,-6.94%
18,O=C([C@H]1C[C@H]2OCC[C@H]2N(CCc2ccccc2)C1)N1CCCCO1,-6.32%
19,Cc1cc(C(=O)NCc2ccc(N3CCCC(C(N)=O)C3)cc2)on1 (configuration not stated),-3.31%
20,CN(Cc1ccc(Cl)s1)C(=O)Nc1ccc(N(C)C)nc1,-11.5%
21,CC(C)N1CCN2C(=O)N(C3CCCCC3)C[C@H]2C1,0.287%
22,CC(C)COCC1CN(Cc2ccoc2)Cc2ncn(C)c21 (configuration not stated),14%
23,O=C(NCc1cc(F)cc(Br)c1)C1(O)CCSCC1,-4.03%

row,Structure (SMILES),cytotoxicity at 70.5 h
1,CC(C)(C)CC(=O)NS(=O)(=O)c1ccc(F)cc1C(F)(F)F,-1.73%
2,CC(=O)N[C@@H]1Cc2ccccc2[C@H]1Nc1cc(C2CC2)ncn1,7.02%
3,COCCN1CCC2(COCc3c(C)nc(N(C)C)nc32)C1 (configuration not stated),-2.27%
4,CC(O)CN1CCc2onc(-c3ccccc3F)c2C1 (configuration not stated),-22.3%
5,Cc1cnn(C2CCCN(C(=O)c3ccnc(-n4ccnc4)c3)C2)c1 (configuration not stated),-0.996%
6,CCn1ccnc1CN1CCN(CCCS(C)(=O)=O)CC1C (configuration not stated),12.1%
7,COCCCSc1ccc(NCc2ccc(C)cn2)cc1,-6.35%
8,CC(=O)C1(c2ccccc2)CCN(C(=O)c2ccn3nnnc3c2)CC1,-13.3%
9,CCc1ccc(C2NCCc3cc4c(cc32)OCCO4)cc1 (configuration not stated),8.93%
10,Cc1cccc(N2CC3(CCN(S(=O)(=O)C4CC4)C3)C2)n1,-6.18%
11,CCN(CC1CN(Cc2ccn(C(C)C)n2)CCO1)c1cccnn1 (configuration not stated),1.41%
12,CC(C)CNC(=O)c1ccc(NC(=O)NC(C)C)cc1Cl,-11.5%
13,Cc1c(CS(C)(=O)=O)cccc1NC(=O)CC1CCCC1,-7.53%
14,Cc1nc([C@H]2C[C@@H]3CCN(Cc4scnc4C)C[C@H]3O2)no1,-5.9%
15,CCC(=O)N(C)CC(=O)Nc1ccc(Br)cn1,2.06%
16,O=C(c1ccncc1)N1CCN2C[C@H](Oc3cccnc3)C[C@H]2C1,2.63%
17,O=C(NCCC1CN(C2CCCC2)CCO1)c1c[nH]c(=O)[nH]c1=O (configuration not stated),-12.3%
18,CC(C)[C@H](NC(=O)N1CCN(c2ccc(Cl)cc2)CC1)C(=O)NC1CC1,-17%
19,COCCNC(=O)CCNc1cc(C)nc(-c2ccncc2)n1,-15.7%
20,CC(C)CC(NC(=O)c1cc(C2CC2)n[nH]1)c1ncnn1C (configuration not stated),20.9%
21,C=C(C)COc1ccccc1CNCCc1cc(O)nc(C)n1,-2.32%
22,CC(=O)NCC(=O)N1C[C@@H](C)[C@@]2(CCN(c3ccsc3)C2=O)C1,-10.5%
23,O=C(Nc1ccccc1F)C1=NN(c2ccccc2)C(=O)CN1,-4.94%

row,Structure (SMILES),cytotoxicity at 70.5 h
1,O=C(CSc1ccccc1)N1C[C@H]2CC[C@@H]1CN(Cc1ccncc1)C2,-4.9%
2,Cc1nc2c(C)cccc2cc1C(=O)N1CCC2(CCN(C)CC2)C1,3.12%
3,CC1CCN(C(=O)CCN2Cc3ccccc3C[C@H]2C(N)=O)C1 (some centres not stated),-6.72%
4,Cc1ccccc1-n1ncc(C(=O)N2CCCC2c2cnn(C)c2)c1C (configuration not stated),-13.6%
5,Cc1cccc(CN2CCC3(CC2)NC(=O)C[C@H]3c2cnn(C)c2)n1,-8.35%
6,O=C(C1CC=CC1)N1CCC2(CC1)CN(Cc1ccccn1)CCO2,-4.02%
7,CC(C)C(NC(=O)Nc1ccccn1)c1cccs1 (configuration not stated),28.6%
8,Cc1ccc(N(C)S(=O)(=O)c2cc(C(=O)O)cs2)c(C)c1,0.683%
9,Cc1ccoc1-c1nnc(CN2CCn3c(C)nnc3C2)o1,-0.634%
10,Cc1ccc(CN2CCN(C(=O)c3ccc(Br)o3)CC2)cc1,27.9%
11,CN(Cc1nnc(C2CC2)o1)C1CCCN(c2cccnn2)C1 (configuration not stated),-3.05%
12,CN1CCN(C2CCN(CCOc3ccccc3F)CC2)C1=O,-11.6%
13,Cn1nccc1C(=O)N1CCC(n2cc(-c3ccsc3)nn2)CC1,-3.85%
14,COc1ccc(C2SCC(=O)Nc3n[nH]cc32)c(OC)c1OC (configuration not stated),5.69%
15,Cc1csc([C@@H]2C[C@@H]3CCN(C(=O)c4cc(C)on4)C[C@H]3O2)n1,-1.08%
16,c1cnnc(NCC2CN(CCn3cncn3)CCO2)c1 (configuration not stated),11.7%
17,Cc1noc(NCc2cn(C)nc2-c2cccnc2)n1,-12.1%
18,Cc1ccc(C(=O)N2CCO[C@H]3[C@H](OCCN(C)C)CC[C@@H]32)cn1,-1.99%
19,Clc1ccc2nncc(N3CCCCC3)c2c1,-10.7%
20,CC(=O)N1CCc2nnc(C3CCCCN3CC3CC3)n2CC1 (configuration not stated),-13%
21,Cc1nn(C)c(N(C)C)c1CNCc1cccc(CN(C)C)c1,-3.97%
22,N#Cc1ccccc1N1CCCN(C(=O)CCc2ccco2)CC1,-5.97%
23,COc1ccc(N2Cc3nc(N)ncc3C2=O)cc1Cl,-3.37%

row,Structure (SMILES),cytotoxicity at 70.5 h
1,COCC1CN(C(=O)c2ccnnc2)Cc2c1cnn2C (configuration not stated),-1.23%
2,CC(Cn1cccn1)NC(=O)NCCCN1CCc2ccccc2C1 (configuration not stated),14.2%
3,CCCn1cc(C(=O)NCCc2ccncc2)c(C)n1,-6.81%
4,Cc1nc(C2CCCN(C(=O)c3cc(-c4ccccc4)[nH]n3)C2)no1 (configuration not stated),-3.98%
5,O=C(NCCCF)Nc1ccc2nc(N3CCOCC3)oc2c1,12.5%
6,Cc1c[nH]c(CN(C)c2nc(C3CCCC3)nc3c2cnn3C)n1,-2.19%
7,Cc1noc(NC(=O)c2ccc(C#N)cc2)n1,-7.88%
8,COCCN1C[C@@H]2COC[C@@H](CC(=O)NCc3cccnc3)[C@@H]2C1,-16.6%
9,Cc1ccncc1-n1cc(CCO)cn1,-5.86%
10,Cc1ccccc1CN(C)C(=O)CN1CCCC(Cn2cncn2)C1 (configuration not stated),-6.64%
11,OCCN1CCC2(CC1)CC(NCc1ccccn1)c1ccccc1O2 (configuration not stated),-0.919%
12,O=C(Cn1cc(Cl)cn1)N1CCCC(c2cc3ccccc3cn2)C1 (configuration not stated),23.4%
13,Cc1cncc(NCC(O)c2ccco2)n1 (configuration not stated),-9.53%
14,CN(Cc1ccsc1)C(=O)CS(=O)(=O)Cc1ccc(Cl)c(Cl)c1,-9.28%
15,CC(=O)c1c(O)n(C)c2ccc(F)cc12,-4.46%
16,O=C(Nc1cnccn1)[C@H]1COC[C@H]2CN(C3CCCC3)C[C@H]21,-2.04%
17,COc1ccc(C(=O)CNC(=O)c2nc(Cl)sc2C(C)C)cc1,25%
18,COCCN1C(=O)C2(CCC(C(=O)Nc3cccc(C)c3)CC2)N=C1C (configuration not stated),-9.96%
19,CC(=O)N1CCN(c2nc3c(cnn3C(C)(C)C)c(=O)[nH]2)CC1,-1.03%
20,Cc1ccc(NC(=O)Cn2cc(I)cn2)cc1,15.3%
21,Cc1ccc(CN2CC[C@@H](N3CCOCC3)[C@@H]2Cc2cccnc2)o1,-6.64%
22,CCn1cc(NC(=O)c2cc(C)nc(N3CCOCC3)n2)cn1,-10.6%
23,CC(=O)N1CCC(C)(c2nc(C)no2)CC1,-5%

row,Structure (SMILES),cytotoxicity at 70.5 h
1,Cc1ccc(CNC(=O)Nc2cc(C(F)(F)F)c[nH]c2=O)cn1,-0.26%
2,COc1ccc(CNC(=O)NCC(=O)NC2CC2)c(C(F)(F)F)c1,21.2%
3,Cc1ccc(N2N=C(C(N)=O)S(=O)(=O)c3cccnc32)cc1,-2.2%
4,CC(C)NC(=O)c1ccc2c(c1)nc1n2CCN(Cc2ccccc2)C1,-12.9%
5,CCOCc1nc(N2CCCC2)sc1C(=O)NCCC(=O)OCC,-6%
6,Cc1ccc(S(=O)(=O)NC(CO)CC(C)C)cc1N(C)C (configuration not stated),-3.97%
7,CC(C)n1ccnc1C1CCN(C(=O)C2COc3ccccc3O2)CC1 (configuration not stated),-9.98%
8,O=C(CCc1cc2n(n1)CCCNC2)N1CCC(N2CCOC2=O)CC1,-3.48%
9,CC(C)(O)CN1CCN(C(=O)COCc2ccccc2Cl)CC1,-0.918%
10,CC(C(=O)NC1CC1)n1nc(-c2cccs2)cc(N)c1=O (configuration not stated),6.89%
11,COCCc1noc(CN2CCCC2Cn2cccn2)n1 (configuration not stated),-9.31%
12,O=S(=O)(C1CC1)N1CC[C@H](OCC2CC2)[C@@H]1Cc1cccnc1,-4.98%
13,COc1cccc(OCC2CCCN(C3CCN(C(C)=O)CC3)C2)c1 (configuration not stated),-4.72%
14,CS(=O)(=O)N1CCCC(Cc2cnc(Br)cn2)C1 (configuration not stated),22.6%
15,O=C(Cn1cc(Cl)cn1)N1CCCC(c2ccn[nH]2)C1 (configuration not stated),-7.33%
16,CC(C)(C)n1ncc2c(=O)[nH]c(N3CCN(CCO)CC3)nc21,-1.33%
17,Cc1nc(C(=O)NCc2ccc(N3CCNC(=O)C3)c(F)c2)cs1,-5.54%
18,NS(=O)(=O)Cc1cccc(C(=O)N2CCCC(n3cccn3)C2)c1 (configuration not stated),4.57%
19,Cc1n[nH]c(C)c1CC(=O)NCc1ccccc1Cl,1.58%
20,CS(=O)(=O)NCCN(CCCO)C1CCc2ccccc21 (configuration not stated),-97.1%
